Measured values from patent publication US12006530B2, “Streptococcal proteases” (priority 2016, dated 2024).
Changes are numbered by the printed parent chain. In names and notes the source's numbering stands. Entries after “also recorded” stand apart in the source; their conditions may differ. Peptide text beside a SMILES is read from it. * marks the point of attachment. Cbz = O=C(OCc1ccccc1)*; CHN2 = [N-]=[N+]=C*

B1: rIgdE^D348A (protein)
chain: DENSHLQSPKNTNKIEVLNWEAFSKKLKDYSSDQRQFHVLKLGFENRLGTLSTREELEEFGKNNNFLVINGKVTQNIHDFPHILVMNKGDVIAHNEEDYHNQMRELRFSGNGDLHNSMEPKRIHALFKIELDSNKRQLLNAAGLGTAENSLKNINGMTIYSHGLTVDNKYYEDYSKYTHNSVKNINVTKERFIANDDLIHKLIESSEAMKQSSERDKVKAFVQYVANHTTYDWEAANKAVQNYADINYYLGSDLFAVTERQKAMCVGFSTTAARAFNMLGLPAYVVVGKNAEGVPHATARVYYDKKWHTIAGTGFITGNKHQRSAKYSEKHFSTIGEDSYDVVEAGQEPKAERNYMIIDSNYESWAMKQKTADLLLFNKEKSLVGLDYIAYVEPTYITENKKNHLLDIYKALKRKVEETKATDKDDKDDKQEGYDRVLQFVNSDIDKLSALSKITEEEFKALENSMDLARVFLGQMNAKAGKEFSEGETYQSYLKNRQKNNTNSDDDRNRNELQENQANSDEVSQNSKDASAPSVNSAQQSEELEGTPSTQETISAAPSQQTPAAPKALQAKTELEDKTETSSLGNTEMVSPSSETAQNTVDSKEESDAKLPYVEPSSKESSEAQVNTVSSPQVSSASPTSSETISTDTVTASQEKAESRVSAPQVISASQTSPETNSAEVVTTSQEVAKAPVSAPQVSSEIQTLSETAPTEVATEAPELSALESNPAPQTSLETTPTEEVTETPEPSVVESNSASPTSPETNSAEAVTTSQEMAEPSVSVPQVSSEIPTSSETAPAEVATEVSEESSSASQPSPETTPTETVTTSQEVAEAPVSAPQVSSEIPTSPETASTEVVVAKQEVADSPVSAPQVISEIPTSSETAPAEVATEVTEPSVVASSSASPTSPEANSTEVVVAKQEVADPLVSAPQTSSASLTLEVPKNEHLDEKADATTPNGVEANTHEAVSVPTSDIRVQDAGSDTVPQPYSLSATLFEEAISTVEPVGVATSSQERSAVAGKVKVPTSLERSNNSVEEEKVVDSNATIENREPEKKEILTSENVLNSLVTIWVALSTSFFMRYFSRGK
B2: rIgdE^C302S (protein)
chain: B1 chain with C265S, A311D
B3: rIgdE^H333A (protein)
chain: B1 chain with H296A, A311D

Experiments:
S. suis IgdE^ΔC = experiment: Inhibitor profile of purified recombinant IgdE^ΔC, quantitative IgG degradation analysis; type: biochemical, Streptococcus suis; conditions: porcine IgG
Method: The time course of cleavage (A) was monitored by continuous sampling prior to Coomassie fluor orange stained SDS-PAGE under reducing conditions followed by densitometric quantification of the cleavage product. 1.67 μM porcine IgG was incubated with 0.2 μM purified rIgdE^ac. Overnight cleavage (16 h) was set as 100% relative cleavage. For the inhibitor profile (B) initial cleavage in presence of 250 μM and 2.5 μM of each inhibitor was monitored. Initial cleavage activity of the uninhibited control was set as 100% relative activity. The DMSO control correlates to 250 μM Z-LVG-CHN2. Data are presented as mean±SEM of three experiments. Differences to the uninhibited control (*) or DMSO control (□) were analyzed by Dunnett's Multiple Comparison Test with significance set at P values of <0.05(*), <0.01(**) and <0.001(*** or □□□).
For time course analyses and inhibitor profiles the IgG degradation reaction was performed with 0.25 mg/ml porcine IgG and 2 μM purified IgdE^ΔC at 37° C. in PBS uninhibited or in the presence of 2.5 μM or […] AEBSF (Sigma), EDTA, E-64 (Sigma), lodoacetamide (Sigma), or Z-LVG-CHN2 (Bachem). DMSO (Sigma) at 0.275%, corresponding to the DMSO content in 250 µM Z-LVG-CHN2, was used as a solvent control. The reactions were continuously sampled and subjected to SDS-PAGE under reducing conditions. Protein bands were detected by staining with Coomassie Fluor™ Orange Protein Gel Stain (Invitrogen). The IgG degradation product was densitometrical quantified by imaging with LAS4000 imaging system (Fujifilm) and analyzed with Image Studio Version 3.1 (LI-COR Biosciences) software. Uninhibited over-night cleavage was set as 100% relative cleavage for the time course experiment. For the inhibitor profile the initial cleavage rate was calculated from the initial increase of cleavage product (0-25% relative cleavage) and the initial cleavage rate of the uninhibited reaction was set as 100% relative activity. Experiments were at least performed in triplicates. Statistical analyses were performed using GraphPad Prism Version 5.0.

[1] = system: IgG degradation activity in culture supernatant of S. suis strain 10; experiment: Inhibitor profile of IgG degradation activity in S. suis culture supernatant, anti-IgG Western blot; type: biochemical, Streptococcus suis; conditions: for IgG cleavage product in presence of inhibitor: concentrated (10×) supernatant of strain 10, porcine plasma; for IgG cleaving activity in the presence of class specific protease inhibitors: protease enriched ammonium sulfate precipitates of S. suis culture supernatant, porcine plasma
Method: Concentrated (10×) culture supernatant of S. suis strain 10 was incubated with porcine plasma in presence of class specific protease inhibitors. The reaction was analyzed by anti-IgG western blot under reducing conditions.
To monitor IgG cleavage activity in concentrated and fractionated culture supernatants, samples were incubated with 1% porcine plasma in PBS for 16 h at 37° C. prior to Western blot analyses.
To identify the catalytic type of the IgG protease, the IgG degradation reaction was performed in the presence of 0.1-5 mM AEBSF (Sigma), 0.1-5 mM EDTA, 50-250 μM E-64 (Sigma), 0.1-5 mM Z-LVG-CHN2 (Bachem), 0.1-5 mM Iodoacetamide (Sigma) or 1/200 to 1/50 dilution of complete protease inhibitor cocktail (Roche).
(§1) Samples for SDS-PAGE were prepared with either reducing or non-reducing sample buffer and heated to 95° C. for 5 min. 12% SDS-PAGE was either stained with Coomassie blue (Sigma), Coomassie Fluor™ Orange Protein Gel Stain (Invitrogen) or blotted to Hybond-P PVDF membrane (GE Healthcare) for western blot analyses. Membranes were blocked with 5% dry milk powder in 0.1% PBS-Tween, followed by incubation with horse-radish peroxidase conjugated antibodies. Goat anti-pig IgG-HRP (Thermo Scientific) and goat anti-porcine IgM-HRP (Thermo Scientific) was diluted 1:25′000 and goat anti-porcine IgA-HRP (Thermo Scientific) was diluted 1:12′500. Membranes were thoroughly washed with 0.1% PBS-Tween prior to development with Amersham ECL Select Western blotting detection reagent (GE Healthcare) according to manufactures instruction and pictured by LAS4000 imaging system (Fujifilm).

porcine IgG = experiment: IgG cleavage by IgdE, SDS-PAGE; type: biochemical, pig; conditions: 3.3 μM porcine IgG, 16 h at 37° C., soluble fractions of E. coli expressing the construct, reducing SDS-PAGE
Method: (A) Schematic illustration of IgdE and the different rIgdE constructs with potential active site residues substitutions and the C-terminal truncation variant. The secretion signal peptide (residues 1-37) is marked in light grey, the transglutaminase domain is boxed and the potential active site residues and substitutions are indicated. (B) 3.3 μM porcine IgG was incubated for 16 h at 37° C. with soluble fractions of E. coli cells expressing different rIgdE constructs. The reaction was analyzed SDS-PAGE under reducing conditions. […] The weak protein band of 37 kDa is a contaminant present in lysate preparation and not related to IgdE activity.
0.5 mg/ml of porcine IgG (Sigma) in PBS or of other species (human, goat, cow, horse and mouse; all Sigma) were incubated with either crude extracts of induced E. coli carrying S. suis IgdE constructs mentioned above or 10 nM purified rIgdE for 16 h at 37° C. prior subjection to SDS-PAGE under either reducing or non-reducing conditions.
as §1

[2] = 125 fold molar excess of inhibitor, 37° C., up to 18 h
[3] = purified recombinant IgdE^ΔC, inhibitor at 250 μM and 2.5 μM per FIG. 3

Molecule | IgG proteolytic activity of purified IgdE^ΔC in presence of inhibitor (S. suis IgdE^ΔC; [2]) | IgG cleaving activity in the presence of class specific protease inhibitors [1] | IgG cleavage product in presence of inhibitor ([1]; inhibitor 0.1-5 mM) | IgG cleavage (32 kDa band) by rIgdE constructs (porcine IgG) | also measured
NCCc1ccc(S(=O)(=O)F)cc1 [AEBSF] | inhibited the IgdEAC moderately | interfered moderately with IgG cleavage | – | – | IgG cleavage product in presence of inhibitor ([1]; inhibitor 5 mM): no degradation product was observed; IgG cleavage product in presence of inhibitor ([1]; inhibitor 0.1-1 mM): A cleavage product of IgG can be observed
CC(C)C[C@H](NC(=O)[C@H]1O[C@@H]1C(=O)O)C(=O)NCCCCN=C(N)N [E-64] | – | appeared to inhibit IgG degrading activity | – | – | IgG proteolytic activity of purified IgdE^ΔC in presence of inhibitor (S. suis IgdE^ΔC; [3]): did not inhibit; IgG cleavage activity of S. suis culture supernatants in presence of inhibitor ([1]; at very high concentrations): interfered with IgG cleavage activity; IgG cleavage product in presence of inhibitor ([1]; inhibitor 50 μM): A cleavage product of IgG can be observed; IgG cleavage product in presence of inhibitor ([1]; inhibitor 250 μM): no degradation product was observed
O=C(O)CN(CCN(CC(=O)O)CC(=O)O)CC(=O)O [EDTA] | – | did not affect IgG cleavage | A cleavage product of IgG can be observed | – | IgG proteolytic activity of purified IgdE^ΔC in presence of inhibitor (S. suis IgdE^ΔC; [3]): fully active
CC(C)CC(NC(=O)OCc1ccccc1)C(=O)NC(C(=O)NCC(=O)C=[N+]=[N-])C(C)C (stereo not drawn) [Z-LVG-CHN2] (Cbz-Leu-Val-Gly-CHN2; configuration not given here) | no cleavage product at all could be detected; also recorded: completely inhibited | appeared to inhibit IgG degrading activity | no degradation product was observed | – | –
NC(=O)CI [iodoacetamide] | no cleavage product at all could be detected | appeared to inhibit IgG degrading activity | no degradation product was observed | – | –
B1 | – | – | – | IgG cleavage (*) occurred; also recorded: somewhat reduced IgG cleaving activity | –
B2 | – | – | – | neither rIgdE^C302S nor rIgdE^H333A exhibited IgG cleaving activity | –
B3 | – | – | – | neither rIgdE^C302S nor rIgdE^H333A exhibited IgG cleaving activity | –
